32 compounds from ChEMBL document CHEMBL1132823, “Fatty acid amide hydrolase substrate specificity” (Bioorg Med Chem Lett, 2000) can be followed below.

The structures appear in SMILES notation.

The assay concerns the target T1, Fatty-acid amide hydrolase 1 (Rattus norvegicus) (UniProt P97612).
T1 sequence (whole entry): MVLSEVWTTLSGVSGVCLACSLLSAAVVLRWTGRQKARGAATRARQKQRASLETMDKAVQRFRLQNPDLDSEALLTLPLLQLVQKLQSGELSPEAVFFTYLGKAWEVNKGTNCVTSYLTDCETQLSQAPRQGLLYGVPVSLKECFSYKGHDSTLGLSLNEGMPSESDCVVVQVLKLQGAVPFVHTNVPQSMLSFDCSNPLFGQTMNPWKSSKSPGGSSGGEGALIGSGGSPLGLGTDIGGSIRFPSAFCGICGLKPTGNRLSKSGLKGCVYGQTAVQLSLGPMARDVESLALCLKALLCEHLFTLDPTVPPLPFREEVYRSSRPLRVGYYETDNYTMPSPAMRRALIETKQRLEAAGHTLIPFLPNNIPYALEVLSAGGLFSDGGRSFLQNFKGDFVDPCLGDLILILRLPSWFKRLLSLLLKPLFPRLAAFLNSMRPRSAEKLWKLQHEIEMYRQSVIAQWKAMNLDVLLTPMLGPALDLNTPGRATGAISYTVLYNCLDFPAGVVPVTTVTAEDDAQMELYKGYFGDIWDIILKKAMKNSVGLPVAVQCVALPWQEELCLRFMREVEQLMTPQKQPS
Kind of assay: Relative rate of fatty acid amide hydrolase hydrolysis of compound compared to that of oleamide.
As for `CCCCC/C=C/C/C=C/CCCCCCCC(N)=O` (stereo in doubt; 22), the Relative rate of hydrolysis stood at 0.54.
The value for `CCCCCCCCCCCCCCCC(N)=O` was 0.72; that for `CCCCC/C=C/C/C=C/CCCCCCCC(N)=O` (stereo in doubt; 21) was 1.04; that for `CCCCCCCC/C=C/CCCCCCNC(N)=O` was under 0.001.
`CCCCCCCCCCC/C=C\CCCCC(N)=O` registered a Relative rate of hydrolysis of 0.91.
Regarding `CC/C=C/C/C=C/C/C=C/C/C=C/C/C=C/C/C=C/CCC(N)=O`, the Relative rate of hydrolysis is 0.82.
The value for `CCCCCCCC/C=C/CCCCCCC(C)C(N)=O` (configuration not stated) was 0.07; that for `CCCCCC/C=C\CCCCCCCCCCCC(N)=O` was 1.03; that for `CC/C=C/C/C=C/C/C=C/CCCCCCCCCC(N)=O` was 1.4.
With `CCCCC/C=C\CCCCCCCCCCC(N)=O`, the Relative rate of hydrolysis was found to be 0.92.
The value for `CCCCCCCC/C=C/CCCCCCCCCCCCCC(N)=O` was 0.82; that for `CCCCCCCC/C=C\CCCCCCCCCC(N)=O` was 1.05.
Compound `CCCCCC/C=C/CCCCCCCC(N)=O` showed a Relative rate of hydrolysis of 0.79.
The value for `CCCCCCCCCCCCCC/C=C\CCCC(N)=O` was 1.16.
For `CCCCCCCCCCCCCC(N)=O`, the Relative rate of hydrolysis came out at 0.83.
The compound `CCCCC/C=C\C/C=C\C/C=C\C/C=C\CCCC(=O)NCCO` displayed a Relative rate of hydrolysis of 1.68.
For `CCCC/C=C/CCCCCCCC(N)=O`, the Relative rate of hydrolysis amounted to 0.86.
The value for `CCCCCCCC/C=C\CCCCCCCC(N)=O` was 1.
The value for `CCCCCCCC/C=C/CCCCCCCC(N)=O` was 0.52; that for `CCCCCCCC/C=C/CCCCCCOC(N)=O` was 0.1; that for `CCCC/C=C\CCCCCCCCCCCC(N)=O` was 0.82.
`C1CCCCCCNCCCCC1` came in with a Relative rate of hydrolysis of 0.74.
The value for `CCCCC/C=C/C/C=C/C/C=C/CCCCCCC(N)=O` was 1.38; that for `CCCCCCCCCCC/C=C\CCCCCCC(N)=O` was 1.12.
The value for `CCCCC/C=C/C/C=C/C/C=C/C/C=C/CCCC(N)=O` was 3.11.
The value for `CCCCCCCC/C=C/CCCCCCCCCCCC(N)=O` was 0.83.
`CCCCCCCCCCCCCCCCCC(N)=O` had a Relative rate of hydrolysis of 0.69.
The value for `CCCCCCCCCC/C=C\CCCCCC(N)=O` was 1.09; that for `CCCCCCCC/C=C/CCCCCCC(C)(C)C(N)=O` was 0.03; that for `CC/C=C/C/C=C/C/C=C/CCCCCCCC(N)=O` was 1.38.
`CC/C=C\CCCCCCCCCCCCCC(N)=O` yielded a Relative rate of hydrolysis of 0.9.
The value for `CCCCC/C=C/C/C=C/CCCCCCCCCC(N)=O` was 1.27.
